These results are taken from patent US20260217682A1, “STILBENE COMPOUND AND PREPARATION METHOD THEREFOR AND USE THEREOF” (THE HONG KONG UNIVERSITY OF SCIENCE AND TECHNOLOGY, priority 2022, published 2026).

For the data set, the system named is human HaCaT cells. Description: Cytotoxicity assay (MTT colorimetric assay). It is filed as cell-based. As to conditions: 0.3-100 μM, 48 hours of treatment. On the procedure:
HaCaT cells were inoculated at a density of 5.0×10^3 cells/mL in a 96-well culture plate, with 100 μL per well. […] After 48 hours of treatment, 10 μL of MTT solution was added to each well, and the cells were incubated at 37° C. for an additional 4 hours. The culture was then terminated, the supernatant was discarded, and 150 μL of DMSO was added to each well. The plate was shaken for 10 minutes for full dissolution. The absorbance (OD) of each well was measured at 490 nm using an ELISA reader. The wells without drug treatment served as controls, and cell viability was calculated using the formula: Cell viability

Each structure is given as a SMILES string.

As to `Oc1ccc(C=Cc2cc(O)cc(O)c2)cc1` [resveratrol], the “cytotoxicity (cell viability)” value is “neither compound RE-1 nor resveratrol exhibited significant cytotoxicity”.
